The values that follow come from US8762074B2, “Optimizing culture medium for CD34<+> hematopoietic cell expansion” (Sino-Cell Technologies, priority 2004, dated 2014).

In one assay the test system is WBC. Put plainly: Ex vivo expansion culture of UCB CD133+/CD34+ cells, WBC growth (cell density at day 7). The following applies: for regression coefficient of first-order model, Eq. (6): from Table 7, IMDM containing TISF; for regression coefficient of first-order model, Eq. (8): from Table 8, cytokine-containing medium; for effect on WBC growth: per Eq. (2), serum-containing IMDM; for regression coefficient of first-order model, Eq. (4): from Table 5, serum-containing medium, +1 = 10 ng/ml. Type of assay: cell-based, human. The method, then: (§1) The UCB of full-termed healthy newborns, included uneventful vaginal births or cesarean sections, was harvested with a standard 250-ml blood bag containing citrate-phosphate-dextrose-adenine anticoagulant (Terumo, Shibuya-ku, Tokyo, Japan).
(§2) Buffy coat cells were obtained from UCB samples by centrifugation (700×g for 20 min), and were diluted with an equal volume of wash buffer (Dulbecco's phosphate buffered saline (D-PBS, Sigma, St. Louis, Mo.) contain 2 mM EDTA (Sigma)). Then the Buffy coat cells were layered onto Ficoll-Paque (ρ=1.077 g/ml, Amersham Biosciences, Uppsala, Sweden) density gradients to deplete red blood cells (RBC) (700×g for 40 min). The mononuclear cell (MNC) interface was collected, diluted into four volumes of wash buffer, and centrifuged to pellet the cells (700×g for 10 min). The MNC pellet was washed twice and resuspended in MACS buffer (D-PBS contained 0.5% bovine serum albumin (BSA, Sigma) and 2 mM EDTA) for CD133<+> cell purification. CD133<+> cord blood cells were isolated using the Miltenyi VarioMACS device (Miltenyi Biotec, Bergisch Gladbach, Germany), according to the manufacturer's instruction. Briefly, UCB MNC were incubated for 30 min at 4° C. with human IgG to block the Fc receptors and mouse monoclonal antibody to human CD133 microbead (Miltenyi Biotec). Labeled cells were applied to magnetic column (LS column, Miltenyi Biotec). Then, unbound cells were washed out, and CD133<+> cells were eluted from the column with MACS buffer. To improve the purity of the CD133+ (or CD34<+>) cells, a secondary purification cycle was performed with the same way. Then the cells were sampled for CD34<+> analysis to determine yield, purity and viability and assayed for colony-forming cells (CFC) as day 0 for control. To expand cells, CD133<+> cells were seeded at a concentration of 5×10^4 cells/ml in 24-well plate (1 ml per well, Falcon, N.J.) with variable serum substitutes, cytokines and medium according to experiment design. After 7 days, the cells were analyzed to compare with the day 0 control (all experiments were repeated at least four times).
(§3) Two-level factorial design followed the method of steepest ascent was carried out to find the optimal concentration of serum substitutes and cytokines for CD34<+> cells expansion. Fractional and full factorial design data were regressed by SPSS software (SPSS Inc. In: SPSS for Windows, base system user's guide. Release 6.0. Chicago, Ill.: SPSS Inc.; 1993. p. 235-47) to obtain the first order polynomial. Its statistical significance was determined by an F-test and the significance of the regression coefficients was analyzed by a t-test. The polynomial takes the form of White blood cell or CD34<+> cell (cells/ml)=β0+βiXi (1) where β's are the regression constants and X's are coded variables for the tested additives.

The subject of assay [1] is CD34<+> hematopoietic cells. Put plainly: Ex vivo expansion culture of UCB CD133+/CD34+ cells, CD34+ cell growth by flow cytometry (cell density at day 7). Type of assay: cell-based, human. The note with it: for regression coefficient of first-order model, Eq. (7): from Table 7, IMDM containing TISF; for regression coefficient of first-order model, Eq. (9): from Table 8, cytokine-containing medium; for effect on CD34<+> cell growth/expansion: per Eq. (3), serum-containing IMDM; for regression coefficient of first-order model, Eq. (5): from Table 5, +1 = 10 ng/ml. As for the experimental part:
as §1, §2
Cells before and after expanding culture were analyzed by two-color flow cytometry on a FACSCaliber analyzer (Becton-Dickinson, NJ, USA). About 1×10^6 cells were stained with FITC-conjugated anti-human CD45 and Peconjugated anti-human CD34, and gated for CD45<+>CD34<+> cells with low side scatter, according to the CD34 enumeration protocols developed by the International Society of Hematotherapy and Graft Engineering (ISHAGE) (Sutherland Dr, et al, J Hematother 1996; 5:231-8). A replicate sample was stained with FITC-antiCD45 and PE-mouse IgG1 as an isotype control to ensure specificity.
as §3
On the technique in general: A flow cytometer gives signals particle by particle.

Setting [2] is: per Eqs. (6) and (7), serum substitutes in IMDM containing TISF.
Where [3] appears, read: per Eqs. (8) and (9), serum substitutes in serum-free medium.
Setting [4] is: 2^9−5 fractional factorial design in IMDM containing BIT2 (data not shown).
[5] abbreviates: per Eqs. (10) and (11), serum-free IMDM + BIT2.
[6] abbreviates: per Eqs. (4) and (5), serum-containing medium.

In the case of `C[C@]12CCC(=O)C=C1CC[C@@H]1[C@@H]2[C@@H](O)C[C@@]2(C)[C@H]1CC[C@]2(O)C(=O)CO` [HC, hydrocortisone, reference compound], the “regression coefficient of first-order model, Eq. (6)” value (shortened to “regression coefficient … (6)”) with WBC is reported as 0.5 10^5 WBC cells/ml.
For `OCCS` [Trial 2-ME, 2-mercaptoethanol], in the assay on WBC, the “regression coefficient … (6)” value is listed as 0.875 10^5 WBC cells/ml and the “regression coefficient of first-order model, Eq. (8)” value (“regression coefficient … (8)” for short) is given as 0.069 10^6 WBC cells/ml. Further, in assay [1], the “regression coefficient of first-order model, Eq. (7)” value (“regression coefficient … (7)” below) is 0.311 10^5 CD34<+> cells/ml and the “regression coefficient of first-order model, Eq. (9)” value (shortened to “regression coefficient … (9)”) was 0.025 10^6 CD34<+> cells/ml. Besides, the “effect on WBC and CD34<+> cell growth” value in assay [1] (setting [2]) was “can stimulate both WBC and CD34<+> cell growth”. The “effect on WBC and CD34<+> cell growth” value in assay [1] (setting [3]) was “could promote WBC and CD34<+> cell growth instead of serum”.
With “IL-6: recombinant human interleukin-6, purchased from R&D systems”, the “effect on WBC and CD34<+> cell growth” value in assay [1] (setting [4]) was “could facilitate WBC and CD34<+> cell growth”; in assay [1] (setting [5]) it was “positively affected WBC and CD34<+> cell growth”. Further, the “effect on CD34<+> cell growth/expansion” value in assay [1] was “less positive effects than TPO, IL-3, SCF and FL”.
Consider Transferrin [TF], for which, in the assay with WBC, the “regression coefficient … (8)” value was 0.7 10^6 WBC cells/ml. Moreover, the “regression coefficient … (7)” value in assay [1] is listed as 0.120 10^5 CD34<+> cells/ml. For the same molecule, the “regression coefficient … (9)” value in assay [1] is on record as 0.303 10^6 CD34<+> cells/ml. The “effect on WBC and CD34<+> cell growth” value was “can stimulate both WBC and CD34<+> cell growth” in assay [1] (setting [2]); “could promote WBC and CD34<+> cell growth instead of serum” in assay [1] (setting [3]).
With bovine serum albumin [BSA], in the assay on WBC, the “regression coefficient … (6)” value was 2.625 10^5 WBC cells/ml and the “regression coefficient … (8)” value is listed as 0.362 10^6 WBC cells/ml. Further, in assay [1], the “regression coefficient … (7)” value is 0.945 10^5 CD34<+> cells/ml and the “regression coefficient … (9)” value is 0.302 10^6 CD34<+> cells/ml. Also, the “effect on WBC and CD34<+> cell growth” value in assay [1] (setting [2]) is “can stimulate both WBC and CD34<+> cell growth”. For the same molecule, the “effect on WBC and CD34<+> cell growth” value in assay [1] (setting [3]) is “could promote WBC and CD34<+> cell growth instead of serum”.
“granulocyte-macrophage colony-stimulating factor [GM-CSF]”: the “effect on WBC growth” value with WBC is “positive”. Further, the “effect on WBC and CD34<+> cell growth” value in assay [1] (setting [4]) was “could facilitate WBC and CD34<+> cell growth”; in assay [1] (setting [5]) it was “positively affected WBC and CD34<+> cell growth”. In addition, the “effect on CD34<+> cell growth/expansion” value in assay [1] is listed as “negative”.
As for insulin, in the assay with WBC, the “regression coefficient … (6)” value is 1.250 10^5 WBC cells/ml and the “regression coefficient … (8)” value was 0.131 10^6 WBC cells/ml. In assay [1], the “regression coefficient … (7)” value is 0.231 10^5 CD34<+> cells/ml and the “regression coefficient … (9)” value is reported as 0.053 10^6 CD34<+> cells/ml. The “effect on WBC and CD34<+> cell growth” value in assay [1] (setting [2]) is “can stimulate both WBC and CD34<+> cell growth”. Besides, in assay [1] (setting [3]), the “effect on WBC and CD34<+> cell growth” value is “could promote WBC and CD34<+> cell growth instead of serum”.
Take stem cell factor [SCF]: in the assay on WBC, the “regression coefficient of first-order model, Eq. (4)” value (“regression coefficient … (4)” for short) is on record as 0.387 10^6 WBC cells/ml. Further, in the assay on WBC, the “effect on WBC growth” value is reported as “stronger effects than the other cytokines”. The “effect on WBC and CD34<+> cell growth” value in assay [1] (setting [4]) was “could facilitate WBC and CD34<+> cell growth”; in assay [1] (setting [6]), “facilitated WBC and CD34<+> cell growth”; in assay [1] (setting [5]), “positively affected WBC and CD34<+> cell growth”. Also, the “regression coefficient of first-order model, Eq. (5)” value (“regression coefficient … (5)” for short) in assay [1] (serum-containing medium) is 0.162 10^6 CD34<+> cells/ml. In assay [1], the “effect on CD34<+> cell growth/expansion” value is listed as “can stimulate CD34<+> cell expansion”.
As for thrombopoietin [TPO], in the assay on WBC, the “regression coefficient … (4)” value is given as 0.413 10^6 WBC cells/ml. Also, in the assay with WBC, the “effect on WBC growth” value is reported as “stronger effects than the other cytokines”. Moreover, the “effect on WBC and CD34<+> cell growth” value is “could facilitate WBC and CD34<+> cell growth” in assay [1] (setting [4]); “facilitated WBC and CD34<+> cell growth” in assay [1] (setting [6]); “positively affected WBC and CD34<+> cell growth” in assay [1] (setting [5]). In addition, the “regression coefficient … (5)” value in assay [1] (serum-containing medium) is 0.172 10^6 CD34<+> cells/ml. For the same molecule, the “effect on CD34<+> cell growth/expansion” value in assay [1] is “can stimulate CD34<+> cell expansion”.

B1: IL-6 sR: IL-6 sR (soluble receptor), purchased from R&D systems (protein, UniProt P08887 20-365, looked up)
extracellular domain: LAPRRCPAQEVARGVLTSLPGDSVTLTCPGVEPEDNATVHWVLRKPAAGSHPSRWAGMGRRLLLRSVQLHDSGNYSCYRAGRPAGTVHLLVDVPPEEPQLSCFRKSPLSNVVCEWGPRSTPSLTTKAVLLVRKFQNSPAEDFQEPCQYSQESQKFSCQLAVPEGDSSFYIVSMCVASSVGSKFSKTQTFQGCGILQPDPPANITVTAVARNPRWLSVTWQDPHSWNSSFYRLRFELRYRAERSKTFTTWMVKDLQHHCVIHDAWSGLRHVVQLRAQEEFGQGEWSEWSPEAMGTPWTESRSPPAENEVSTPMQALTTNKDDDNILFRDSANATSLPVQDSSSVPLP
modifications: extracellular domain
notes: IL-6 sR (soluble receptor), purchased from R&D systems
Regarding B1, the “effect on WBC growth” value in the assay with WBC is “inhibited WBC growth”.

B2: granulocyte colonystimulating factor (protein, UniProt P09919 31-207, looked up)
Granulocyte …: TPLGPASSLPQSFLLKCLEQVRKIQGDGAALQEKLVSECATYKLCHPEELVLLGHSLGIPWAPLSSCPSQALQLAGCLSQLHSGLFLYQGLLQALEGISPELGPTLDTLQLDVADFATTIWQQMEELGMAPALQPTQGAMPAFASAFQRRAGGVLVASHLQSFLEVSYRVLRHLAQP
notes: recombinant human growth factor
Consider B2, for which the “effect on WBC and CD34<+> cell growth” value in assay [1] (setting [4]) was “could facilitate WBC and CD34<+> cell growth”; in assay [1] (setting [5]), “positively affected WBC and CD34<+> cell growth”. Moreover, the “effect on CD34<+> cell growth/expansion” value in assay [1] is “less positive effects than TPO, IL-3, SCF and FL”.

B3: Flt-3 ligand (protein, UniProt P49771 27-235, looked up)
Fms-related tyrosine kinase 3 …: TQDCSFQHSPISSDFAVKIRELSDYLLQDYPVTVASNLQDEELCGGLWRLVLAQRWMERLKTVAGSKMQGLLERVNTEIHFVTKCAFQPPPSCLRFVQTNISRLLQETSEQLVALKPWITRQNFSRCLELQCQPDSSTLPPPWSPRPLEATAPTAPQPPLLLLLLLPVGLLLLAAAWCLHWQRTRRRTPRPGEQVPPVPSPQDLLLVEH
notes: as for B2
Take B3: the “regression coefficient … (4)” value in the assay on WBC is listed as 0.237 10^6 WBC cells/ml. The “effect on WBC growth” value in the assay on WBC was “stronger effects than the other cytokines”. Also, the “effect on WBC and CD34<+> cell growth” value is “could facilitate WBC and CD34<+> cell growth” in assay [1] (setting [4]); “facilitated WBC and CD34<+> cell growth” in assay [1] (setting [6]); “positively affected WBC and CD34<+> cell growth” in assay [1] (setting [5]). Moreover, in assay [1] (serum-containing medium), the “regression coefficient … (5)” value was 0.110 10^6 CD34<+> cells/ml. Further, the “effect on CD34<+> cell growth/expansion” value in assay [1] is on record as “can stimulate CD34<+> cell expansion”.
